Test results from patent publication US9556183B2, “Substituted pyrazolylpyrazole derivative and use of same as herbicide” (KYOYU AGRI CO., LTD., priority 2013, dated 2017).

Columns and labels:
Assay type in all cases: in vivo
Rice plants = assay: Paddy herbicidal activity test, phytotoxicity to transplanted rice; details: rice transplanted at 2.0 leaf stage, 30 days
Experimental: (§1) Rice paddy soil was filled into a 1/10000 are pot followed by the addition of suitable amounts of water and chemical fertilizer, kneading, seeding with Echinochloa crus-galli, Monochoria vaginalis and Scirpus juncoides and maintaining in an irrigated state at a water depth of 3 cm. Wettable powder of Target Compound (I) shown in Table 1 prepared in compliance with the preparation examples were diluted with a suitable amount of water, rice plants in the 2.0 leaf stage were transplanted during 3.5 leaf stage of Echinochloa crus-galli, and treated by dropping in chemical in the prescribed amount per are using a pipette. After treating for 30 days in a glass greenhouse at an average atmospheric temperature of 30° C., the herbicidal efficacy thereof was investigated. Evaluation of herbicidal efficacy was carried out by comparing growth inhibition rate (%) with an untreated group, while evaluation of phytotoxicity was carried out by comparing growth inhibition rate (%) with the state of a complete eradication group, and were evaluated at 11 levels indicated below. [table]

Scirpus juncoides = assay: Paddy herbicidal activity test; details: irrigated paddy pot, 30 days
Experimental: as §1

Monochoria vaginalis = assay: Paddy herbicidal activity test; details: irrigated paddy pot, 30 days
Experimental: as §1

Echinochloa crus-galli = assay: Paddy herbicidal activity test; details: irrigated paddy pot, treated at 3.5 leaf stage of Echinochloa crus-galli, 30 days
Experimental: as §1

Row | SMILES | phytotoxicity (growth inhibition rate level) Rice plants (Rice plants; 1g a.i./10a) | phytotoxicity (growth inhibition rate level) Rice plants (Rice plants; 5g a.i./10a) | herbicidal efficacy (growth inhibition rate level) Scirpus juncoides (Scirpus juncoides; 1g a.i./10a) | herbicidal efficacy (growth inhibition rate level) Scirpus juncoides (Scirpus juncoides; 5g a.i./10a) | herbicidal efficacy (growth inhibition rate level) Monochoria vaginalis (Monochoria vaginalis; 1g a.i./10a) | herbicidal efficacy (growth inhibition rate level) Monochoria vaginalis (Monochoria vaginalis; 5g a.i./10a) | herbicidal efficacy (growth inhibition rate level) Echinochloa crus-galli (Echinochloa crus-galli; 1g a.i./10a) | herbicidal efficacy (growth inhibition rate level) Echinochloa crus-galli (Echinochloa crus-galli; 5g a.i./10a)
1 | CC(C1CC1)N(C(=O)C(F)(F)F)c1c(C#N)cnn1-c1nn2c(c1Cl)CCCC2 (stereo not shown) [Compound 14] | 0 (0 (exponent): 0% to less than 10% (growth inhibition rate)) | 0 (0 (exponent): 0% to less than 10% (growth inhibition rate)) | 7 (7: 70% to less than 80%) | 8 (8: 80% to less than 90%) | 7 (7: 70% to less than 80%) | 7 (7: 70% to less than 80%) | 8 (8: 80% to less than 90%) | 9 (9: 90% to less than 100%)
2 | CC1CC1CN(C(=O)C(F)(F)F)c1c(C#N)cnn1-c1nn2c(c1Cl)CCCC2 (stereo not shown) [Compound 13] | 0 (0 (exponent): 0% to less than 10% (growth inhibition rate)) | 1 (1: 10% to less than 20%) | 8 (8: 80% to less than 90%) | 8 (8: 80% to less than 90%) | 8 (8: 80% to less than 90%) | 8 (8: 80% to less than 90%) | 9 (9: 90% to less than 100%) | 9 (9: 90% to less than 100%)
3 | O=[N+]([O-])c1cnn(-c2nn3c(c2Br)CCCC3)c1NCC1CC1 [Compound 158] | 0 (0 (exponent): 0% to less than 10% (growth inhibition rate)) | 0 (0 (exponent): 0% to less than 10% (growth inhibition rate)) | 8 (8: 80% to less than 90%) | 9 (9: 90% to less than 100%) | 7 (7: 70% to less than 80%) | 7 (7: 70% to less than 80%) | 8 (8: 80% to less than 90%) | 9 (9: 90% to less than 100%)
4 | O=C(N(CC1CC1)c1c([N+](=O)[O-])cnn1-c1nn2c(c1Cl)CCCC2)C(F)(F)F [Compound 115] | 0 (0 (exponent): 0% to less than 10% (growth inhibition rate)) | 1 (1: 10% to less than 20%) | 9 (9: 90% to less than 100%) | 8 (8: 80% to less than 90%) | 8 (8: 80% to less than 90%) | 8 (8: 80% to less than 90%) | 8 (8: 80% to less than 90%) | 9 (9: 90% to less than 100%)
5 | O=[N+]([O-])c1cnn(-c2nn3c(c2Cl)CCCC3)c1NCC1CC1 [Compound 114] | 0 (0 (exponent): 0% to less than 10% (growth inhibition rate)) | 0 (0 (exponent): 0% to less than 10% (growth inhibition rate)) | 8 (8: 80% to less than 90%) | 9 (9: 90% to less than 100%) | 7 (7: 70% to less than 80%) | 8 (8: 80% to less than 90%) | 9 (9: 90% to less than 100%) | 9 (9: 90% to less than 100%)
6 | O=C(N(CC1CC1)c1c([N+](=O)[O-])cnn1-c1nn2c(c1Br)CCCC2)C(F)(F)F [Compound 159] | 0 (0 (exponent): 0% to less than 10% (growth inhibition rate)) | 0 (0 (exponent): 0% to less than 10% (growth inhibition rate)) | 7 (7: 70% to less than 80%) | 8 (8: 80% to less than 90%) | 7 (7: 70% to less than 80%) | 8 (8: 80% to less than 90%) | 8 (8: 80% to less than 90%) | 9 (9: 90% to less than 100%)
7 | CC(Nc1c(C#N)cnn1-c1nn2c(c1Cl)CCCC2)C1(C)CC1 (stereo not shown) [Compound 8] | 0 (0 (exponent): 0% to less than 10% (growth inhibition rate)) | 0 (0 (exponent): 0% to less than 10% (growth inhibition rate)) | 7 (7: 70% to less than 80%) | 8 (8: 80% to less than 90%) | 7 (7: 70% to less than 80%) | 7 (7: 70% to less than 80%) | 9 (9: 90% to less than 100%) | 9 (9: 90% to less than 100%)
8 | CC1(CNc2c(C#N)cnn2-c2nn3c(c2Cl)CCCC3)CC1 [Compound 4] | 0 (0 (exponent): 0% to less than 10% (growth inhibition rate)) | 1 (1: 10% to less than 20%) | 8 (8: 80% to less than 90%) | 8 (8: 80% to less than 90%) | 9 (9: 90% to less than 100%) | 9 (9: 90% to less than 100%) | 9 (9: 90% to less than 100%) | 10 (10: 100%)
9 | N#Cc1cnn(-c2nn3c(c2Cl)CCC3)c1NCC1CC1 [Compound 5] | 0 (0 (exponent): 0% to less than 10% (growth inhibition rate)) | 1 (1: 10% to less than 20%) | 8 (8: 80% to less than 90%) | 9 (9: 90% to less than 100%) | 9 (9: 90% to less than 100%) | 9 (9: 90% to less than 100%) | 9 (9: 90% to less than 100%) | 10 (10: 100%)
10 | N#Cc1cnn(-c2nn3c(c2Cl)CCC3)c1N(CC1CC1)C(=O)C(F)(F)F [Compound 6] | 0 (0 (exponent): 0% to less than 10% (growth inhibition rate)) | 0 (0 (exponent): 0% to less than 10% (growth inhibition rate)) | 7 (7: 70% to less than 80%) | 8 (8: 80% to less than 90%) | 8 (8: 80% to less than 90%) | 9 (9: 90% to less than 100%) | 9 (9: 90% to less than 100%) | 9 (9: 90% to less than 100%)
11 | N#Cc1cnn(-c2nn3c(c2Cl)CCCC3)c1N(CC1CC1)C(=O)C(F)(F)C(F)(F)F [Compound 3] | 0 (0 (exponent): 0% to less than 10% (growth inhibition rate)) | 0 (0 (exponent): 0% to less than 10% (growth inhibition rate)) | 7 (7: 70% to less than 80%) | 8 (8: 80% to less than 90%) | 7 (7: 70% to less than 80%) | 7 (7: 70% to less than 80%) | 8 (8: 80% to less than 90%) | 8 (8: 80% to less than 90%)
